Assay [1] has as its system blood pressure. Nature of the assay: Blood Pressure Reducing Action: Intravenous Injection. The assay is classed as in vivo, Male Wister rats. To be noted: anesthetized rat; for Reduction of Blood Pressure: i.v.; for ED (50 mmHg reduction): iv, from dose-response curve, read-out: MABP50 (dose required for reducing average blood pressure by 50 mmHg). On the procedure:
Male Wister rats (mean body weight: 420 g) were anesthetized by intra-peritoneal injection of 50 mg/kg of pentobarbital sodium and were fixed on their backs, and their blood pressures were measured at left femoral artery. Subsequently, a compound to be tested was dissolved in a saline solution containing 0.25% bovine serum albumin and injected into the rat through the right femoral vein.
A dose-response curve was prepared from the above values to determine a dose required for reducing average blood pressure by 50 mmHg (MABP50). MABP50 for the above compound was 21 ng/kg.

A further assay concerns platelet. Nature of the assay: Blood Platelet Agglutination Action. The class given is cell-based, male Japanese white rabbit. To be noted: Oryctolagus cuniculus; for pEC50: from agglutination curve. On the procedure: A male Japanese white rabbit was anesthetized by pentobarbital, and a blood was collected in aqueous 3.13% sodium citrate solution at its carotid. The blood containing 1/10 volume ratio of the sodium citrate solution was treated in a conventional manner to give a platelet rich plasma (PRP) and a platelet poor plasma (PPP) for performing the following experiment.
PRP was diluted with PPP to give a sample containing platelets at 300,000/mm^3.
Agglutination of platelet was determined by means of Platelet Aggregation Tracer PAT-4A(available from Niko Bioscience Co., Ltd., Japan). 10 μl of a test solution was added to 190 μl of PRP to give a final solution of 2×10^-10 to 2×10^-4 M, and an agglutination curve is recorded. For the preparation of the test solution, a saline solution containing 0.25% bovine serum albumin.
Agglutination of Platelet

Assay [2] relates to blood pressure. Nature of the assay: Blood Pressure Decreasing Action: Oral Administration. The class given is in vivo, Spontaneously hypertensive male rats. Particulars: 10 mg/kg. On the procedure: Spontaneously hypertensive male rates (average body weight: 359 g) were etherized and fixed on their backs. Blood pressure was measured for each rat through cannulation at its left femoral artery. A compound to be tested was dissolved in a distilled water and the resulting aqueous solution was administered orally.

pEC50: −log10 of the molar value.

As to `CCCCCCCCCCCCCCCCOCC(COP(=O)([O-])OC1CC[N+](C)(C)C1)OC(C)=O` (stereo not drawn) [Example 8, 2-Acetyloxy-3-hexadecyloxypropyl 1,1-dimethylpyrrolidinio-3-yl phosphate], the “Reduction of Blood Pressure” value is -4.5 ± 1.5 mmHg with blood pressure [1] (1 ng/kg); -21.5 ± 8.0 mmHg with blood pressure [1] (5 ng/kg); -47.5 ± 0.5 mmHg with blood pressure [1] (10 ng/kg); -52.6 ± 4.6 mmHg in the assay with blood pressure [1] (50 ng/kg); -67.0 ± 3.1 mmHg with blood pressure [1] (100 ng/kg). The ED (50 mmHg reduction) in the assay with blood pressure [1] came to 0.021 µg/kg. Moreover, in the assay on platelet (2 × 10^-6 M, PRP = 0%, PPP = 100%), the activation at 2 µM amounted to 86%. Further, the activation at 0.2 µM in the assay with platelet (2 × 10^-7 M, PRP = 0%, PPP = 100%) is 81%. In the assay on platelet (2 × 10^-8 M, PRP = 0%, PPP = 100%), this compound gave an activation at 0.02 µM of 67%. In addition, the activation at 0.002 µM with platelet (2 × 10^-9 M, PRP = 0%, PPP = 100%) stood at 18%. In the assay on platelet (2 × 10^-10 M, PRP = 0%, PPP = 100%), the activation at 0.0002 µM amounted to 0%. The compound also gave a pEC50 with platelet of 7.74.

For `CCCCCCCCCCCCCCCCOCC(OC(C)=O)C(OP(=O)([O-])OC1CC[N+](C)(C)C1)C(C)C` (stereo not drawn) [Example 6, 2-Acetyloxy-3-hexadecyloxy-1-(1-methylethyl)-propyl 1,1-dimethylpyrrolidinio-3-yl phosphate], in the assay with blood pressure [1], the ED (50 mmHg reduction) was determined as 48 µg/kg. In the assay with platelet (table), the pEC50 is 5.30.

In the case of `CCCCCCCCCCCCCCCCOCC(COP(=O)([O-])OC1CC[N+](C)(C)CC1)OC(C)=O` (stereo not drawn) [Example 2, 2-Acetyloxy-3-hexadecyloxypropyl 1,1-dimethylpiperidinio-4-yl phosphate], the ED (50 mmHg reduction) in the assay on blood pressure [1] worked out at 0.058 µg/kg. The negative logarithm of the EC50 (pEC50) in the assay with platelet (table) is 8.10.

With `CCCCCCCCCCCCCCCCOC(C)C(COP(=O)([O-])OC1CC[N+](C)(C)C1)OC(C)=O` (stereo not drawn) [Example 3, 2-Acetyloxy-3-hexadecyloxybutyl 1,1-dimethylpyrrolidinio-3-yl phosphate], the ED (50 mmHg reduction) with blood pressure [1] worked out at 8.5 µg/kg. Besides, the “Reduction of Blood Pressure” value in the assay on blood pressure [2] (after 30 min) was -49.7 mmHg; with blood pressure [2] (after 1 hr) it was -60.7 mmHg; in the assay on blood pressure [2] (after 2 hrs) it was -74.3 mmHg; with blood pressure [2] (after 3 hrs), -82.0 mmHg; in the assay on blood pressure [2] (after 4 hrs), -84.7 mmHg; in the assay on blood pressure [2] (after 5 hrs), -83.7 mmHg. Also, the “Reduction of Blood Pressure” value with blood pressure [2] (after 6 hrs) is reported as -82.3 mmHg. This compound gave a pEC50 with platelet (table) of 6.40.

In the case of `CCCCCCCCCCCCCCCCOC(C)C(COP(=O)([O-])OC1CCC[N+](C)(C)C1)OC(C)=O` (stereo not drawn) [Example 4, 2-Acetyloxy-3-hexadecyloxybutyl 1,1-dimethylpiperidinio-3-yl phosphate], the ED (50 mmHg reduction) in the assay with blood pressure [1] amounted to 0.34 µg/kg. Also, the “Reduction of Blood Pressure” value in the assay on blood pressure [2] (after 30 min) is on record as -66.0 mmHg; in the assay with blood pressure [2] (after 1 hr), -68.0 mmHg; with blood pressure [2] (after 2 hrs), -73.0 mmHg; in the assay on blood pressure [2] (after 3 hrs), -72.3 mmHg; in the assay with blood pressure [2] (after 4 hrs) it was -66.7 mmHg; in the assay with blood pressure [2] (after 5 hrs), -63.0 mmHg. Besides, the “Reduction of Blood Pressure” value in the assay on blood pressure [2] (after 6 hrs) is on record as -66.7 mmHg. The pEC50 in the assay on platelet (table) is 7.66.

As to `CCCCCCCCCCCCCCCCOCC(COP(=O)([O-])OC1CCC[N+](C)(C)C1)OC(C)=O` (stereo not drawn) [Example 1, 2-Acetyloxy-3-hexadecyloxypropyl 1,1-dimethylpiperidinio-3-yl phosphate], the ED (50 mmHg reduction) in the assay with blood pressure [1] amounted to 0.013 µg/kg. This compound had a pEC50 in the assay on platelet (table) of 9.22.

With `CCCCCCCCCCCCCCCCOC(C)C(COP(=O)([O-])OC1CC[N+](C)(C)CC1)OC(C)=O` (stereo not drawn) [Example 5, 2-Acetyloxy-3-hexadecyloxybutyl 1,1-dimethylpiperidinio-4-yl phosphate], in the assay on blood pressure [1], the ED (50 mmHg reduction) stood at 8.6 µg/kg. Further, the “Reduction of Blood Pressure” value is on record as “+5.0 mmHg” in the assay on blood pressure [2] (after 30 min); 0 mmHg with blood pressure [2] (after 1 hr); -14.5 mmHg in the assay with blood pressure [2] (after 2 hrs); -19.0 mmHg in the assay with blood pressure [2] (after 3 hrs); -22.5 mmHg in the assay on blood pressure [2] (after 4 hrs); -26.0 mmHg with blood pressure [2] (after 5 hrs). For the same compound, in the assay on blood pressure [2] (after 6 hrs), the “Reduction of Blood Pressure” value is -28.0 mmHg. In the assay on platelet (table), this compound showed a pEC50 of 6.20.
